We go through five compounds from patent US20230310474A1, “CORONAVIRUS TREATMENT COMPOSITION AND METHOD” (Cleveland State University, priority 2022, published 2023).

The term IC50 denotes the midpoint of a concentration-inhibition curve.

For series [1], the system named is HCoV-OC43. Nature of the series: microbe, parasite or virus in culture. Type of series: cell-based.
The test system of series [2] is SARS-CoV-2. The following applies: several clinical trials; cited from earlier work.
The target of series [3] is T1, Neu1 (Homo sapiens, UniProt Q99519).
T1 construct: expressed in transfected cells; host or cells: HEK293T
Nature of the series: Neuraminidase (sialidase) activity assay with 4-MU-NANA in HEK293T cells transfected with Neu1. Type of series: cell-based.

The test system of series [4] is SARS-CoV-2. The series is described as follows: SARS-CoV-2 high-throughput screen (HTS) cytopathic effect assay in Vero 76 cells. As to conditions: MOI 0.1, 48 hours. Type of series: cell-based.
In series [5] the test system is human sialidases. As to conditions: cited from earlier work.
Series [6] relates to SARS-CoV-2. In kind it is in vivo, K18-hACE2 transgenic mice. The following applies: K18-hACE2 mice, IP on days 0-4, 1 x 10^4 PFU.
The nature of series [7]: Intracellular conversion of membrane-permeable inhibitor. As to conditions: upon entering into the cells.
Series [8] concerns HCoV-OC43. The series is described as follows: HCoV-OC43 replication in epithelial cell lines (HEK293T, HeLa, BSC-1). In kind it is cell-based. As for the experimental part: Cells were fixed with 4% paraformaldehyde in phosphate buffered saline (PBS) at room temperature for 15 min and then permeabilized with 1% Triton X-100 in PBS at room temperature for 15 min. Immunofluorescence staining was performed. Images were acquired with an EVOS FL Auto Imaging System (Thermo Fisher Scientific).
Next, it was tested whether the observed efficacy of Neu5Ac2en-OAcOMe was not restricted to THP-1 cells. The efficacy of Neu5Ac2en-OAcOMe was evaluated in three epithelial cell lines (HEK293T cells, HeLa cells and BSC-1 cells). […] Therefore, cytosolic sialidase inhibitors represent a potential treatment for coronavirus infections.

The subject of series [9] is HCoV-OC43. The series is described as follows: HCoV-OC43 binding and entry assay in pretreated THP-1 cells (4° C. or 37° C.). Type of series: cell-based. The following applies: THP-1 cells pretreated two hours; 4° C. one hour or 37° C. two hours post-infection. As for the experimental part:
Whether Neu5Ac2en-OAcOMe acts on the virus binding and entry steps of the viral life cycle was evaluated. THP-1 cells were treated with Neu5Ac2en-OAcOMe for two hours and then infected the cells with HCoV-OC43 at 4° C. or 37° C. Cells incubated at 4° C. were collected one hour post-infection and cells incubated at 37° C. were collected two hours post-infection. Intracellular viral RNA was quantified by RT-qPCR.

Series [10] relates to HCoV-OC43.
For series [11], the system named is THP-1 cells. The series is described as follows: Cytokine production in THP-1 cells (human cytokine bead array). In kind it is cell-based. Here is the method: Mouse blood samples were obtained at indicated time points, and cytokines in the serum were determined using a mouse cytokine bead array designed for inflammatory cytokines (552364, BD Biosciences, San Jose, CA). Human cytokines in cell culture derived supernatants were determined using a human cytokine bead array designed for inflammatory cytokines (551811, BD Biosciences).
(§1) To determine whether Neu5Ac2en-OAcOMe affects post-entry steps of the viral life cycle, THP-1 cells were infected with HCoV-OC43 for two hours and then treated the cells with Neu5Ac2en-OAcOMe. Intracellular viral RNA and viral titers were quantified in the cell culture supernatants 72 hours post-infection.

For series [12], the system named is THP-1 cells. Nature of the series: MTS cell viability assay in THP-1 cells. The following applies: all tested concentrations. Type of series: cell-based, human. Here is the method: FIGS. 3A-J illustrate that Neu5Ac2en-OAcOMe exerts anti-viral effects in human cell models. […] (upper) or 37° C. (lower). Intracellular viral RNA was analyzed by RT-qPCR. FIGS. 3B-D show HCoV-OC43 (MOI = 2) infected THP-1 cells were treated with a gradient concentration of Neu5Ac2en-OAcOMe for 72 hours. Intracellular viral RNA (FIG. 3B, upper), extracellular progeny virus yields (FIG. 3B, lower and FIG. 3C) and intracellular nucleocapsid (FIG. 3D) were analyzed by RT-qPCR, TCID50 assay and immunoblot, respectively. The inhibitory and cytotoxic curves (3C) were obtained using the data from the lower panel in FIG. 3B and cell viability measured by MTS assay. CellTiter 96® AQueous One Solution Cell Proliferation Assay (MTS) (Promega, G3582) was performed as instructed in the kit manual. […] Sialylation was detected with biotin-MAA and biotin-SNA lectins. […] Nucleocapsid in the cell lysates was measured by western blot. […] The levels of intracellular nucleocapsid were analyzed by immunofluorescence (48 hours post-infection). […] ND, not detected. […]
as §1
In general terms: Formazan colour is commonly taken as a measure of viable cells.

Where [13] appears, read: HEK293T cells, HeLa cells and BSC-1 cells.
Where [14] appears, read: HEK293T cells with Neu1 expression vector, 30 min at room temperature.

For the compound `CC1(C)Cc2c(sc(NC(=S)NC(=O)c3ccccc3)c2C(=O)O)CO1` [CID-1067700, reference compound], the HCoV-OC43 release result in [1] was “moderately inhibited”.
Consider `CCOC(=O)C1=C[C@@H](OC(CC)CC)[C@H](NC(C)=O)[C@@H](N)C1` [oseltamivir], for which the “antiviral activity against HCoV-OC43 (viral transcripts and viral titer)” value (shortened to “antiviral activity against HCoV-OC43”) in [1] is listed as “did not show inhibitory activity”. Moreover, the “efficacy in treating SARS-CoV-2 infection” value in [2] is given as “no positive outcomes were observed”. Besides, in series [3], the “sialidase activity in the cytoplasm” value is “only slightly decreased”. Besides, the “protection activity (cell viability post SARS-CoV-2 infection)” value (“protection activity” for short) in [4] is “did not show inhibitory activity”. Moreover, the “effect on human sialidases” value in [5] is listed as “almost no effect”.
With `CC(=O)N[C@H]1[C@H]([C@H](O)[C@H](O)CO)OC(C(=O)O)=C[C@@H]1N=C(N)N` [zanamivir], the “antiviral activity against HCoV-OC43” value in series [1] is given as “did not show inhibitory activity”. Also, the “protection activity” value in series [4] was “did not show inhibitory activity”. For the same compound, the “effect on human sialidases” value in [5] is “almost no effect”.
Take `COC(=O)C1=CC(OC(C)=O)[C@@H](NC(C)=O)C([C@H](OC(C)=O)[C@@H](COC(C)=O)OC(C)=O)O1` (stereo partly drawn) [Neu5Ac2en-OAcOMe]: in series [1], the N protein levels result was “significantly decreased”; the “antiviral activity against HCoV-OC43” value is reported as “showed the highest antiviral activities”; the “sialylation of HCoV-OC43 N protein” value was “increased sialylation”; the “viral replication at the level of viral transcripts and viral titers” value was “significantly decreased viral replication”. In addition, the IC50 in series [1] (Betacoronavirus 1, OC43, THP-1, read-out: IC50 of viral replication (viral titers in cell culture supernatants)) was determined as 13.7 µM. Besides, in series [6], the SARS-CoV-2-induced mortality result is given as “significant protection” and the body weight loss entry was “significant protection”. In addition, in [7], the intracellular conversion entry is on record as “readily converted to the corresponding Neu5Ac2en intracellularly”. In [8] (BSC-1 cells, MOI 0.1, 48 hours post-infection), the “viral replication by immunofluorescence staining for HCoV-OC43-N protein” value is listed as “effectively suppressed viral replication”. In addition, in series [8] (setting [13]), the “N protein levels in epithelial cell lines” value was “significantly decreased” and the “viral replication in epithelial cell lines” value was “inhibited viral replication in all three cell lines”. Also, the “virus binding and entry steps (intracellular viral RNA)” value in [9] is “did not affect virus binding and entry steps”. Moreover, in series [3] (setting [14]), the “cell surface sialidase activity” value is listed as “did not affect” and the “total sialidase activity (total cell lysate)” value is “significantly decreased”. Also, the body weight result in series [10] (after HCoV-OC43 infection, 20 mg/kg IP) is reported as “significantly lower in vehicle-treated mice than in Neu5Ac2en-OAcOMe-treated mice”. Besides, in series [10] (day 5 post-infection), the “brain and lung tissue damage (H&E staining)” value was “improved”; the “serum IL-6 level” value was “substantial decrease”; the “serum TNF-α level” value is listed as “substantial decrease”. Also, the “HCoV-OC43 viral replication in the lungs, blood and brain” value in [10] (day 5 post-infection, 20 mg/kg IP) is “suppression of HCoV-OC43 viral replication”. In addition, in series [10] (in vivo, all treatment period), the “toxic signs and symptoms” value is “No toxic signs and symptoms were observed”. In addition, the survival in series [10] (seven-day-old C57BL/6 pups, 20 mg/kg IP, 10 days observation) turned out to be 50%. Besides, in [4], the “protection activity” value was “showed the highest protection activities”. For the same compound, in series [11], the cytokine production result is given as “did not induce cytokine production”. Further, in series [12], the “toxicity in MTS assay” value was “non-toxic at all tested concentrations”.
As to `O=C(CO)N[C@H]1[C@H]([C@H](O)[C@H](O)CO)OC(C(=O)O)=C[C@@H]1O` [Neu5Gc2en, reference compound], in series [1], the “antiviral activity against HCoV-OC43” value is given as “did not inhibit HCoV-OC43 replication”. Besides, the “cell surface sialidase activity” value in [3] (setting [14]) is listed as “targets sialidase on cell surface”. Also, the “protection activity” value in series [4] is listed as “could not protect”.
